Results as given in ChEMBL document CHEMBL3785091, “Discovery of AZD8165 a clinical candidate from a novel series of neutral thrombin inhibitors” (Medchemcomm, 2016).
Converted amounts (≈) assume the structure as drawn. One block for each molecule: values may come before it.

Assays:
[1] = Kinetic solubility of compound in HBSS-MES buffer at 5 to 10 mM at pH 6.8 by LC-UV/MS analysis; type: physicochemical; settings: read-out: Kinetic_solubility
[2] = Bioavailability in Sprague-Dawley rat; type: ADME, organism-based; settings: in vivo
Rattus norvegicus [3] = organism: Rattus norvegicus; assay: Toxicity in rat by irwin assay relative to control; type: organism-based; settings: in vivo
Rattus norvegicus [4] = organism: Rattus norvegicus; assay: Cardiotoxicity in rat by electrophysiology assay relative to control; type: toxicity, organism-based; settings: in vivo
Cavia porcellus = organism: Cavia porcellus; assay: Cardiotoxicity in guinea pig by cardiac electrophysiology assay relative to control; type: toxicity, organism-based, Heart; settings: in vivo
Rattus norvegicus [5] = organism: Rattus norvegicus; assay: Toxicity in rat arterial thrombosis model assessed as increase in bleeding time; type: organism-based; settings: in vivo
Mus musculus = organism: Mus musculus; assay: Cardiotoxicity in mouse by electrophysiology assay relative to control; type: toxicity, organism-based; settings: in vivo
Canis familiaris = assay: Oral bioavailability in dog assessed as (5S)-N-[5-Chloro-2-(1H-tetrazol-1-yl)benzyl]-1-[(2R)-2-(4-fluorophenyl)-2-hydroxyacetyl]-4,5-dihydro-1H-pyrazole-5-carboxamide level; type: ADME, organism-based, Canis lupus familiaris; settings: in vivo
[6] = Drug metabolism in dog urine; type: ADME, tissue-based, Canis lupus familiaris
[7] = Drug excretion in dog urine assessed as compound unchanged; type: ADME, tissue-based, Canis lupus familiaris; settings: read-out: Drug excretion
Homo sapiens [8] = assay: Toxicity in po dosed human; type: organism-based; settings: in vivo
Rattus norvegicus [9] = assay: Oral bioavailability in rat assessed as (5S)-N-[5-Chloro-2-(1H-tetrazol-1-yl)benzyl]-1-[(2R)-2-(4-fluorophenyl)-2-hydroxyacetyl]-4,5-dihydro-1H-pyrazole-5-carboxamide level; type: ADME, organism-based; settings: in vivo
[10] = Drug metabolism in rat urine; type: ADME, tissue-based
[11] = Drug excretion in rat urine assessed as compound unchanged; type: ADME, tissue-based; settings: read-out: Drug excretion
[12] = Drug excretion in rat bile assessed as (5S)-N-[5-Chloro-2-(1H-tetrazol-1-yl)benzyl]-1-[(2R)-2-(4-fluorophenyl)-2-hydroxyacetyl]-4,5-dihydro-1H-pyrazole-5-carboxamide level; type: ADME, tissue-based; settings: in vivo
[13] = Drug excretion in dog bile assessed as (5S)-N-[5-Chloro-2-(1H-tetrazol-1-yl)benzyl]-1-[(2R)-2-(4-fluorophenyl)-2-hydroxyacetyl]-4,5-dihydro-1H-pyrazole-5-carboxamide level; type: ADME, tissue-based, Canis lupus familiaris; settings: in vivo
Rattus norvegicus [14] = assay: Bioavailability in rat dosed via colon route assessed as (5S)-N-[5-Chloro-2-(1H-tetrazol-1-yl)benzyl]-1-[(2R)-2-(4-fluorophenyl)-2-hydroxyacetyl]-4,5-dihydro-1H-pyrazole-5-carboxamide level; type: ADME, organism-based; settings: in vivo, other
[15] = Drug excretion in human urine; type: ADME, tissue-based
Homo sapiens [16] = assay: Oral bioavailability in human; type: ADME, organism-based; settings: in vivo

solubility kinetic [1]: 97 µM (≈ 43.9 µg/mL)
bioavailability [2]: 63%
Compound: O=C(NCc1cc(Cl)ccc1-n1cnnn1)[C@@H]1C[C@@H]2C[C@@H]2N1C(=O)[C@H](O)c1ccccc1

solubility kinetic [1]: 87.5 µM (≈ 43.7 µg/mL)
Compound: CC(=O)O[C@@H](C(=O)N1N=CC[C@H]1C(=O)NCc1cc(Cl)ccc1-n1cnnn1)c1ccc(F)cc1

solubility kinetic [1]: 97 µM (≈ 42 µg/mL)
bioavailability [2]: 57%
Compound: CC(C)(C)[C@@H](O)C(=O)N1C[C@@H]2C[C@@H]2[C@H]1C(=O)NCc1cc(Cl)ccc1-n1cnnn1

solubility kinetic [1]: 100 µM (≈ 45.3 µg/mL)
bioavailability [2]: 86%
Compound: O=C(NCc1cc(Cl)ccc1-n1cnnn1)[C@@H]1C[C@H]2C[C@H]2N1C(=O)[C@H](O)c1ccccc1

solubility kinetic [1]: 59 µM (≈ 24.8 µg/mL)
bioavailability [2]: 70%
Compound: CCCC[C@@H](O)C(=O)N1N=CC[C@H]1C(=O)NCc1cc(Cl)ccc1-n1cnnn1

solubility kinetic [1]: < 1 µM
Compound: CCCC(=O)O[C@@H](C(=O)N1N=CC[C@H]1C(=O)NCc1cc(Cl)ccc1-n1cnnn1)c1ccc(F)cc1

solubility kinetic [1]: 98 µM (≈ 43.1 µg/mL)
bioavailability [2]: 60%
Compound: O=C(NCc1cc(Cl)ccc1-n1cnnn1)[C@@H]1CC=NN1C(=O)[C@H](O)c1ccccc1

solubility kinetic [1]: 95 µM (≈ 43.5 µg/mL)
bioavailability [2]: 75%
Compound: O=C(NCc1cc(Cl)ccc1-n1cnnn1)[C@@H]1CC=NN1C(=O)[C@H](O)c1ccc(F)cc1
fold change (FC) (Rattus norvegicus [3]): > 24
fold change (FC) (Rattus norvegicus [4]): > 40
fold change (FC) (Cavia porcellus): > 40
fold change (FC) (Rattus norvegicus [5]): 2
fold change (FC) (Mus musculus): > 40

solubility kinetic [1]: 20.5 µM (≈ 11.1 µg/mL)
Compound: CCCCC(=O)O[C@@H](C(=O)N1N=CC[C@H]1C(=O)NCc1cc(Cl)ccc1-n1cnnn1)c1ccc(F)cc1

Compound: CCC(=O)O[C@@H](C(=O)N1N=CC[C@H]1C(=O)NCc1cc(Cl)ccc1-n1cnnn1)c1ccc(F)cc1 [AZD-8165]
fold change (FC) (Rattus norvegicus [3]): > 24
F (Canis familiaris): 52%
solubility kinetic [1]: 2.5 µM (≈ 1.28 µg/mL)
Drug metabolism [6]: metabolite_detected
dose excreted [7]: 18%
MTD (Homo sapiens [8]): 2.5 mg
fold change (FC) (Rattus norvegicus [4]): > 40
F (Rattus norvegicus [9]): 64%
fold change (FC) (Cavia porcellus): > 40
Drug metabolism [10]: metabolite_detected
dose excreted [11]: 66%
Drug excretion [12]: metabolite_notdetected
fold change (FC) (Mus musculus): > 40
Drug excretion [13]: metabolite_notdetected
F (Rattus norvegicus [14]): 30%
Drug excretion [15]: metabolite_notdetected

F (Homo sapiens [16]): 20%
Compound: CCOC(=O)CN[C@@H](C(=O)N1CC[C@H]1C(=O)NCc1ccc(/C(N)=N\O)cc1)C1CCCCC1 [XIMELAGATRAN]
